This is an account of results in paper PMC11813147, “Bioactivity assessment of peptides derived from salted jellyfish (Rhopilema hispidum) byproducts” (PLOS ONE, 2025).

Series [1] is described as follows: ABTS radical scavenging assay. The note with it: supplement tables; for ABTS, mean±SD: n = 3. The class given is biochemical. The procedure:
The ABTS radical scavenging activity of the sample was measured using a method adapted from Mirzaei et al.. The ABTS radical was generated by mixing 7 mM ABTS with 2.45 mM potassium persulfate in a 1:1 ratio and incubating the mixture in the dark at room temperature for 12 to 16 h. The resulting solution was then diluted to achieve an absorbance of 0.74 ± 0.03 at 734 nm, using deionized water for adjustments. Next, 10 μL of the sample was added to 190 μL of the ABTS solution. The mixture was incubated in the dark for 7 min, after which the absorbance was measured at 734 nm. The ABTS radical scavenging activity (%) was calculated using the following equation (2):
ABTSradicalscavengingactivity%=Acontrol–Asample/Acontrol×100 (2)
In this equation, Acontrol refers to the absorbance of the control solution (which contains all reagents except the test samples), while Asample refers to the absorbance of the mixture containing the sample and the ABTS solution. To determine the Trolox equivalent antioxidant capacity (TEAC), a Trolox standard curve was used, and the results were expressed as millimoles of Trolox equivalents per milligram of protein (mM TE/mg protein).

Series [2] in a line: Ferric reducing antioxidant power (FRAP) assay. In kind it is biochemical. The procedure: The FRAP assay was conducted following the method outlined by Rumpf et al.. The FRAP solution was prepared by mixing 300 mM acetate buffer (pH 3.6), 10 mM TPTZ (2,4,6-Tris(2-pyridyl)-s-triazine) in 40 mM hydrochloric acid, and 20 mM FeCl3 in a ratio of 10:1:1. In a 96-well plate, 10 μL of the sample was combined with 190 μL of the FRAP solution and incubated in the dark for 15 min. The absorbance of the mixture was then measured at 593 nm. FeSO4 was used to create the standard curve, and the results were expressed as millimoles of FeSO4 equivalent per milligram of protein (mM FeSO4/mg protein).

Series [3] deals with RAW 264.7. Briefly: Anti-inflammation assay: released NO in LPS-stimulated RAW 264.7 (Griess). In kind it is cell-based, Murine. The note with it: then 1 µg/mL LPS 24 h; for Released NO: peptide 10 µg/mL 1 h; for Released NO, mean±SD: peptide 10 µg/mL pre-treatment 1 h, Griess reagent, n = 3. As to the method:
(§1) Murine macrophage cells (RAW 264.7; ATCC TIB-71™) were cultured in Dulbecco’s Modified Eagle’s Medium (DMEM) that was supplemented with 10% heat-inactivated fetal bovine serum (FBS) and 1% antibiotic solution. Colorectal adenocarcinoma cells (CaCo-2; ATCC HTB 37™) were cultured in Eagle’s Minimum Essential Medium (EMEM), also supplemented with 10% heat-inactivated FBS and 1% antibiotic solution. Both cell types were maintained in a humidified incubator with 5% CO2. The cell culture medium was refreshed every three days.
The anti-inflammation assay was conducted following the method described by Barzkar et al. with slight modifications. RAW 264.7 (1 x 10^5 cells) was seeded into a 96-well plate to allow for cell attachment. After 24 h, the cells were pre-treated with fresh medium containing peptide samples at a concentration of 10 µg/mL for 1 h. Subsequently, the treated cells were stimulated with 1 µg/mL lipopolysaccharide (LPS) for an additional 24 h. Unstimulated cells were included as a negative control. At the end of the treatment period, the conditioned medium was collected for the determination of released nitric oxide (NO). Griess’s reagent (Promega) was utilized to measure the NO concentration, following the manufacturer’s instructions. A NO calibration curve was generated to quantify the released NO in the conditioned medium.
(In general: The Griess reaction detects nitrite, a stable product of nitric oxide.)

A short description of series [4]: DPPH radical scavenging assay. The note with it: for DPPH, mean±SD / DPPH: supplement tables; for DPPH, mean±SD / DPPH radical scavenging activity (TEAC): n = 3, mean ± SD; for DPPH radical scavenging activity (TEAC): 10 µL sample + 190 µL 0.1 mM DPPH in 70% ethanol, 30 min dark, room temperature, 517 nm, Trolox standard curve. The class given is biochemical. The procedure:
The DPPH radical scavenging activity of the sample was assessed following a modified protocol based on a previous study. In each well of a 96-well plate, 10 μL of the sample was added, followed by 190 μL of 0.1 mM DPPH solution in 70% ethanol. The mixture was then incubated at room temperature in the dark for 30 min. After the incubation period, the absorbance of the mixture was measured at 517 nm. The DPPH radical scavenging activity was calculated using the following equation (1):
DPPHradicalscavengingactivity%=Acontrol–Asample/Acontrol×100 (1)
In this equation, Acontrol represents the absorbance of a control solution containing all reagents except for the test samples, while Asample is the absorbance of the mixture (the sample combined with 0.1 mM DPPH). To determine the Trolox equivalent antioxidant capacity (TEAC), a Trolox standard curve was utilized. The results were expressed as millimoles of Trolox equivalents per milligram of protein (mM TE/mg protein).
Background: DPPH is a stable violet radical that fades when it is reduced.

Series [5] has as its system RAW 264.7. The series is described as follows: Cytotoxicity assessment (MTT). The note with it: peptide 10 µg/mL, 72 h; for Cell viability, mean±SD: relative to untreated cells. In kind it is cell-based, Murine. As to the method:
as §1
Cytotoxicity assessment was performed following the method described by Yang et al., with slight modifications. RAW 264.7 was seeded with 1 x 10^5 cells in a 96-well plate with an appropriate cell culture medium. After allowing the cells to attach, the medium was replaced with a fresh cell culture medium containing the peptide samples at a concentration of 10 µg/mL. The treated cells were incubated for an additional 72 h. At the designated time, fresh medium was added, which included 3-(4,5-dimethylthiazol-2-yl)-2,5-diphenyltetrazolium bromide (MTT) at a concentration of 0.5 mg/mL. After 3 h, formazan crystals were observed. The medium was then removed, and the crystals were dissolved in 100% dimethyl sulfoxide (DMSO). A microplate reader (Synergy HTX; Biotek, Multi-Mode Reader, Winooski, VT, USA) was utilized to measure the absorbance at 570 nm (measurement wavelength) and 630 nm (reference wavelength). The percentage of cell viability was calculated relative to untreated cells using the following equation (5):
Cellviability%=ODtreatment–ODblank/ODuntreated–ODblank×100 (5)
Where ODtreatment is the absorbance of the treated sample, ODuntreated is the absorbance of the untreated sample, and ODblank is the absorbance from wells without treated and untreated samples.

Where [6] appears, read: 10 µL sample + 190 µL FRAP solution, 15 min dark, 593 nm, FeSO4 standard curve, mean ± SD, n = 3, SD.

As for “KFNEVVYFL [P15, synthesized peptide identified from jellyfish fraction PUR20C]”, the “ABTS, mean±SD” value in series [1] was 131.66±1.15^B TE/mg protein. In addition, the values for the ABTS in series [1] (replicate 1), in series [1] (replicate 2) and in series [1] (replicate 3) were 132.32 TE/mg protein, 130.32 TE/mg protein and 132.32 TE/mg protein, respectively. The FRAP in series [2] (setting [6]) is recorded as 4.61±0.73^H mM FeSO4/mg protein; in series [2] (supplement tables, replicate 1), 3.84 mM FeSO4/mg protein; in series [2] (supplement tables, replicate 2), 4.68 mM FeSO4/mg protein; in series [2] (supplement tables, replicate 3), 5.31 mM FeSO4/mg protein. In addition, the “Released NO” value in series [3] (replicate 1) is listed as 32.75 µM; in series [3] (replicate 2) it was 32.75 µM; in series [3] (replicate 3), 34.82 µM. Further, the “Released NO, mean±SD” value in series [3] (SD) stood at 33.44 µM. Moreover, in series [4], the “DPPH, mean±SD” value is on record as 6.20±1.00^D TE/mg protein. Moreover, the DPPH in series [4] (replicate 1) came to 5.49 TE/mg protein; in series [4] (replicate 2), 5.76 TE/mg protein; in series [4] (replicate 3), 7.35 TE/mg protein. Also, the “Cell viability, mean±SD” value in series [5] (n = 3, SD) is listed as 87.22%. In addition, the Cell viability came out at 87.87% in series [5] (replicate 1), 85.58% in series [5] (replicate 2) and 88.22% in series [5] (replicate 3).

On to “LGAEGRSP [P13, synthesized peptide identified from jellyfish fraction PUR20C]”, for which the “ABTS, mean±SD” value in series [1] is on record as 6.51±0.87^H TE/mg protein. In addition, the ABTS in series [1] (replicate 1) is 5.91 TE/mg protein; in series [1] (replicate 2), 6.11 TE/mg protein; in series [1] (replicate 3), 7.51 TE/mg protein. The FRAP in series [2] (setting [6]) is on record as 4.82±0.73^H mM FeSO4/mg protein; in series [2] (supplement tables, replicate 1) it was 4.89 mM FeSO4/mg protein; in series [2] (supplement tables, replicate 2), 5.52 mM FeSO4/mg protein; in series [2] (supplement tables, replicate 3), 4.05 mM FeSO4/mg protein. In addition, the “Released NO” value is given as 35.17 µM in series [3] (replicate 1), 35.51 µM in series [3] (replicate 2) and 37.58 µM in series [3] (replicate 3). The “Released NO, mean±SD” value in series [3] (SD) was 36.09 µM. For the same sequence, in series [4], the “DPPH, mean±SD” value is given as 5.85±0.66^D TE/mg protein. Further, the DPPH amounted to 5.23 TE/mg protein in series [4] (replicate 1), 5.76 TE/mg protein in series [4] (replicate 2) and 6.56 TE/mg protein in series [4] (replicate 3). The “Cell viability, mean±SD” value in series [5] (n = 3, SD) amounted to 82.77±1.53%. For the same sequence, the Cell viability in series [5] (replicate 1) was 81.72%; in series [5] (replicate 2), 82.07%; in series [5] (replicate 3) it was 84.53%.

Take “LNIPKPKLNLL [P11, synthesized peptide identified from jellyfish fraction PUR20C]”: in series [1], the “ABTS, mean±SD” value is recorded as 3.91 TE/mg protein. Besides, the ABTS was determined as 4.11 TE/mg protein in series [1] (replicate 1), 3.71 TE/mg protein in series [1] (replicate 2) and 3.91 TE/mg protein in series [1] (replicate 3). Also, the FRAP in series [2] (setting [6]) is listed as 6.36±0.63^G mM FeSO4/mg protein; in series [2] (supplement tables, replicate 1) it was 6.36 mM FeSO4/mg protein; in series [2] (supplement tables, replicate 2), 7.00 mM FeSO4/mg protein; in series [2] (supplement tables, replicate 3), 5.73 mM FeSO4/mg protein. The figures for the “Released NO” value in series [3] (replicate 1), in series [3] (replicate 2) and in series [3] (replicate 3) were 36.55 µM, 35.86 µM and 37.58 µM, respectively. In series [3] (SD), the “Released NO, mean±SD” value stood at 36.66 ± 0.86 µM. The “DPPH, mean±SD” value in series [4] is listed as 3.81±0.40^E TE/mg protein. The DPPH in series [4] (replicate 1) stood at 3.90 TE/mg protein; in series [4] (replicate 2), 3.37 TE/mg protein; in series [4] (replicate 3) it was 4.17 TE/mg protein. In addition, the “Cell viability, mean±SD” value in series [5] (n = 3, SD) turned out to be 84.71%. Besides, the Cell viability in series [5] (replicate 1) was determined as 84.53%; in series [5] (replicate 2) it was 85.41%; in series [5] (replicate 3), 84.18%.

For “MVVACVLPEA [P16, synthesized peptide identified from jellyfish fraction PUR20C]”, the “ABTS, mean±SD” value in series [1] is 121.31±0.87^D TE/mg protein. The ABTS came to 121.71 TE/mg protein in series [1] (replicate 1), 120.30 TE/mg protein in series [1] (replicate 2) and 121.91 TE/mg protein in series [1] (replicate 3). Also, the FRAP is 6.92 mM FeSO4/mg protein in series [2] (setting [6]); 8.05 mM FeSO4/mg protein in series [2] (supplement tables, replicate 1); 7.63 mM FeSO4/mg protein in series [2] (supplement tables, replicate 2); 5.10 mM FeSO4/mg protein in series [2] (supplement tables, replicate 3). Also, the “Released NO” value was 35.17 µM in series [3] (replicate 1), 33.44 µM in series [3] (replicate 2) and 35.17 µM in series [3] (replicate 3). The “Released NO, mean±SD” value in series [3] came to 34.59 µM; in series [3] (SD), 34.59 ± 0.99 µM. The “DPPH radical scavenging activity (TEAC)” value is “strongest DPPH radical scavenging activity” in series [4] and 56.07 mM TE/mg protein in series [4] (listed as MVVACVLPEA). The “DPPH, mean±SD” value in series [4] is listed as 56.07±0.30^A TE/mg protein. The DPPH in series [4] (replicate 1) is given as 55.89 TE/mg protein; in series [4] (replicate 2) it was 55.89 TE/mg protein; in series [4] (replicate 3), 56.42 TE/mg protein. The “Cell viability, mean±SD” value in series [5] (n = 3) is on record as “without cytotoxic effects”. Besides, the results for the Cell viability in series [5] (replicate 1), in series [5] (replicate 2) and in series [5] (replicate 3) were 81.01%, 81.37% and 81.19%, respectively.
